In publication PMC11864979, “First-in-class ultralong-target-residence-time p38α inhibitors as a mitosis-targeted therapy for colorectal cancer” (Nature Cancer, 2025):
Where two headings read alike, the source gives them in different places.

Tests used:
Assay in all cases: selectivity profiling in a panel of 340 wild-type kinases (Reaction Biology Europe)
Assay type in all cases: binding
340 wild-type kinases [1] = target: T1, 340 wild-type kinases (Homo sapiens, UniProt O14965)
T1 construct: purchased Reaction Biology Europe
T1 sequence (O14965 1-403): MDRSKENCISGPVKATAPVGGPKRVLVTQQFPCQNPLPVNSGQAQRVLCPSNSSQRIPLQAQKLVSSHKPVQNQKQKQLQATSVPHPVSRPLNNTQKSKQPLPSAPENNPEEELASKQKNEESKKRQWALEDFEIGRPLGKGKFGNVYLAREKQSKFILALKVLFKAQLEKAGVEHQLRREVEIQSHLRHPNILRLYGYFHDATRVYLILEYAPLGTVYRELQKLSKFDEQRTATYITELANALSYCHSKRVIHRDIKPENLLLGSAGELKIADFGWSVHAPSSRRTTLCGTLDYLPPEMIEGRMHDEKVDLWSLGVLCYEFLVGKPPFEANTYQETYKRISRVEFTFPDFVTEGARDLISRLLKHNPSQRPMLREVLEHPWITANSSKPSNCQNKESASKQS

340 wild-type kinases [2] = target: T2, 340 wild-type kinases (Homo sapiens, UniProt Q99683)
T2 construct: purchased Reaction Biology Europe
T2 sequence (Q99683 1-1374): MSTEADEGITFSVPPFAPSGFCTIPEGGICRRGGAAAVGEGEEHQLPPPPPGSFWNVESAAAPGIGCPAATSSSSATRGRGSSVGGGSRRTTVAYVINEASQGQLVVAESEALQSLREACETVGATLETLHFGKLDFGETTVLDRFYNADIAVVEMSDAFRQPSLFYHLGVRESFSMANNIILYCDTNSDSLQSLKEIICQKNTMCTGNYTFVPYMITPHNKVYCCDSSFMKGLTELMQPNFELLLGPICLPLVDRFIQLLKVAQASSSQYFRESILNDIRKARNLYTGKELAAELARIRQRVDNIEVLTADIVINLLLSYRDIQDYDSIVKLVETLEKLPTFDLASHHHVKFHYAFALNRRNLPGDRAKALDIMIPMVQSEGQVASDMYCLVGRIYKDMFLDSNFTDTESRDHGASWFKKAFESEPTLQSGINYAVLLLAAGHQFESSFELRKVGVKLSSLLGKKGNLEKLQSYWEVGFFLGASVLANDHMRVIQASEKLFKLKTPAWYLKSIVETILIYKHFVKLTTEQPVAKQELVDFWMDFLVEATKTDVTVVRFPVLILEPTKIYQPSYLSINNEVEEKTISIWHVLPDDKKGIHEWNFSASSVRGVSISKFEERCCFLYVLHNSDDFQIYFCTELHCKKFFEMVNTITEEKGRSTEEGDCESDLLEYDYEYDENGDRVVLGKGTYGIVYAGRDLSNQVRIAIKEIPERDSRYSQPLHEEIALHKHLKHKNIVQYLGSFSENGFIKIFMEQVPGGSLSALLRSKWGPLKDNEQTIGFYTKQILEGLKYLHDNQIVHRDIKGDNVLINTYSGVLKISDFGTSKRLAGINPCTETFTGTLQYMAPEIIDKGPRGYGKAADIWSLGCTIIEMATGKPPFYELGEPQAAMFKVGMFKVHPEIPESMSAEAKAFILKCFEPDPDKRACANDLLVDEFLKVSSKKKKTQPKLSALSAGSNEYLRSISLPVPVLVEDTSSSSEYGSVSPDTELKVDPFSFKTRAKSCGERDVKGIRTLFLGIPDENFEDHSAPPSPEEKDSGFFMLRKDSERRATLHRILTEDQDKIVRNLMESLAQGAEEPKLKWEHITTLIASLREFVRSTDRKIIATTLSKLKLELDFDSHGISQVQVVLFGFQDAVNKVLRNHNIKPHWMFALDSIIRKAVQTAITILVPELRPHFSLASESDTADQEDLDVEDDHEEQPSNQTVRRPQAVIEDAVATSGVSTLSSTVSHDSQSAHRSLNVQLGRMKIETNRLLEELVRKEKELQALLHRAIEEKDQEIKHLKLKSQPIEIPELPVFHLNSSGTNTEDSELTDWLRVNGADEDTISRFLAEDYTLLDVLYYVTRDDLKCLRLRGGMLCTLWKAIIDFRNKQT

340 wild-type kinases [3] = target: T3, 340 wild-type kinases (Homo sapiens, UniProt Q9BUB5)
T3 construct: purchased Reaction Biology Europe
T3 sequence (Q9BUB5 whole entry): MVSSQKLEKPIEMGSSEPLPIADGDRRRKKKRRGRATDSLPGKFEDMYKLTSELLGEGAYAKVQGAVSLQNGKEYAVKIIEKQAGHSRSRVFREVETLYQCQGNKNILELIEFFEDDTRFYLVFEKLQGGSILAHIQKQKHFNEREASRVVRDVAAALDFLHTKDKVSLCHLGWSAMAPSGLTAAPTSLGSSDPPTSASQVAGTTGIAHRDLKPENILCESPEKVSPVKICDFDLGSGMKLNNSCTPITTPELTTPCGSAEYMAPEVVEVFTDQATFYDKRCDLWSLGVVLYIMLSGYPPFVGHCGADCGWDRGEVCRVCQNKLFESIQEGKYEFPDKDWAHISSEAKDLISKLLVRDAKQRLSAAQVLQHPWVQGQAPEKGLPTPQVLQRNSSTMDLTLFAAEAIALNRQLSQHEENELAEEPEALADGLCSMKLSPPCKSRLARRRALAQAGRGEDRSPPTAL

340 wild-type kinases [4] = target: T4, 340 wild-type kinases (Homo sapiens, UniProt Q9H1R3)
T4 construct: purchased Reaction Biology Europe
T4 sequence (Q9H1R3 whole entry): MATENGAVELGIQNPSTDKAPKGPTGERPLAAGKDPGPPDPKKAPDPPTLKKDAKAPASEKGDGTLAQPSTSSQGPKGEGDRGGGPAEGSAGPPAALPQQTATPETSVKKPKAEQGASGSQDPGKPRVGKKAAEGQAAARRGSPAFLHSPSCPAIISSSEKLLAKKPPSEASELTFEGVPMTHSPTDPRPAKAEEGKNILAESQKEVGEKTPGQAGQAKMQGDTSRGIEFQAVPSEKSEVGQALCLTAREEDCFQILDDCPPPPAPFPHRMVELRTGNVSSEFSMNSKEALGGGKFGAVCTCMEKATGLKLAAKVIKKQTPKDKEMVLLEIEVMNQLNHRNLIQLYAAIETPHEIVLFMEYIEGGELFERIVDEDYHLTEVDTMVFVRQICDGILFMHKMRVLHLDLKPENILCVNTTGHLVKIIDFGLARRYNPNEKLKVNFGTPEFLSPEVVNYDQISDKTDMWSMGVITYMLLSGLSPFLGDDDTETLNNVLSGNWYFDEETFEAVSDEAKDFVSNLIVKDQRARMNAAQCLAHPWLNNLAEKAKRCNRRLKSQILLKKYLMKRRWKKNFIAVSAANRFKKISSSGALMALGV

340 wild-type kinases [5] = target: T5, 340 wild-type kinases (Homo sapiens, UniProt P50613)
T5 construct: purchased Reaction Biology Europe
T5 sequence (P50613 whole entry): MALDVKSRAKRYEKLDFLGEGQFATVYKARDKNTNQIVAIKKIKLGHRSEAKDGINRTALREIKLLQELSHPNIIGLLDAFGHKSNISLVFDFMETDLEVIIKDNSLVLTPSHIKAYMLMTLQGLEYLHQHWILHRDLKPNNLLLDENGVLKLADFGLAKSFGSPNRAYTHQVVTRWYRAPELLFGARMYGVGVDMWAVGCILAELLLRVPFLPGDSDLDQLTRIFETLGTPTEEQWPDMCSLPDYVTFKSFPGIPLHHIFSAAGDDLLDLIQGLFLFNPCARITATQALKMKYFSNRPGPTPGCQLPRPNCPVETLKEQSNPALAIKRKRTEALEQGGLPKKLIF

## CNC(=O)c1ccc2c(c1)C(=O)c1ccc(Nc3ccc(F)c(NC(=O)C4CC4)c3)cc1CC2 [Compound 2015]
340 wild-type kinases [1]; 0.2 µM 2015, read-out: AuroraA residual activity
  remaining activity at 0.2 µM: 98.6%
340 wild-type kinases [1]; 1 µM 2015, read-out: AuroraA residual activity
  remaining activity at 1 µM: 103%
340 wild-type kinases [1]; AuroraA, 0.2 µM, read-out: residual activity
  remaining activity at 0.2 µM: 98.5%
340 wild-type kinases [1]; AuroraA, 1 µM, read-out: residual activity
  remaining activity at 1 µM: 103%
340 wild-type kinases [2]; 0.2 µM 2015, read-out: ASK1 residual activity
  remaining activity at 0.2 µM: 95.5%
340 wild-type kinases [2]; 1 µM 2015, read-out: ASK1 residual activity
  remaining activity at 1 µM: 95%
340 wild-type kinases [2]; ASK1, 0.2 µM, read-out: residual activity
  remaining activity at 0.2 µM: 95.5%
340 wild-type kinases [2]; ASK1, 1 µM, read-out: residual activity
  remaining activity at 1 µM: 95%
340 wild-type kinases [3]; 0.2 µM 2015, read-out: MKNK1 residual activity
  remaining activity at 0.2 µM: 98.2%
340 wild-type kinases [3]; 1 µM 2015, read-out: MKNK1 residual activity
  remaining activity at 1 µM: 91.6%
340 wild-type kinases [3]; MKNK1, 0.2 µM, read-out: residual activity
  remaining activity at 0.2 µM: 98.2%
340 wild-type kinases [3]; MKNK1, 1 µM, read-out: residual activity
  remaining activity at 1 µM: 91.6%
340 wild-type kinases [4]; 0.2 µM 2015, read-out: MYLK2 residual activity
  remaining activity at 0.2 µM: 89.3%
340 wild-type kinases [4]; 1 µM 2015, read-out: MYLK2 residual activity
  remaining activity at 1 µM: 77.6%
340 wild-type kinases [4]; MYLK2, 0.2 µM, read-out: residual activity
  remaining activity at 0.2 µM: 89.3%
340 wild-type kinases [4]; MYLK2, 1 µM, read-out: residual activity
  remaining activity at 1 µM: 77.6%
340 wild-type kinases [5]; 0.2 µM 2015, read-out: CDK7/CycH/MAT1 residual activity
  remaining activity at 0.2 µM: 94%
340 wild-type kinases [5]; 1 µM 2015, read-out: CDK7/CycH/MAT1 residual activity
  remaining activity at 1 µM: 91.1%
340 wild-type kinases [5]; CDK7/CycH/MAT1, 0.2 µM, read-out: residual activity
  remaining activity at 0.2 µM: 94%
340 wild-type kinases [5]; CDK7/CycH/MAT1, 1 µM, read-out: residual activity
  remaining activity at 1 µM: 91.2%
